Source: article PMC4627284, “High-throughput simultaneous screen and counterscreen identifies homoharringtonine as synthetic lethal with von Hippel-Lindau loss in renal cell carcinoma” (Oncotarget, 2015)

What was measured:
[1] = test system: 786-O EV^GFP (VHL-deficient) cells; experiment: Western blot for Caspase 9 and Bcl-xL; format: cell-based, human
Procedure: (§1) Figure 2 Homoharringtonine (HHT) preferentially induces cell death in VHL-deficient 786-O cells A. 786-O cells with VHL mutation (green) or with VHL-reconstituted (red) were treated with different concentrations of HHT (0, 25, 50, or 100 nM) for 0, 6, 12, 24, 36, or 48 hours, and cell death was measured by trypan blue exclusion assay (n = 3 for each concentration and time point; *p < 0.05, **p < 0.001, ***p < 0.0001 between 786-O EV cells and 786-O with VHL reconstituted at the same concentration and time point). B. […] Blots were probed for Bcl-xL and Caspase 9, and α-Tubulin as loading control. Arrow indicates the cleaved Caspase 9 product.

[2] = test system: 786-O VHL^mCh (VHL-reconstituted) cells; experiment: Western blot for Caspase 9 and Bcl-xL; format: cell-based, human; conditions: 24 hours
Procedure: as §1

## COC(=O)C[C@](O)(CCCC(C)(C)O)C(=O)O[C@@H]1C(OC)=C[C@]23CCCN2CCc2cc4c(cc2[C@H]13)OCO4 [HHT, homoharringtonine]
[1]; 50 nM and 100 nM, within 12 hours
  caspase 9 cleavage: observed
[1]; 24 hours
  Bcl-xL expression: not upregulated
[2]
  Bcl-xL expression: upregulated
